The first experiment deals with HCV 1b-377-neo replicon cells. The experiment in a line: HCV replicon assay, HCV 1b-377-neo replicon cells (1b FRET). In kind it is cell-based, Hepatitis C virus genotype 1b. The note with it: HCV 1b-377-neo replicon cells; HCV 1b genotype; read-out: EC50 range against HCV 1b (Table 2, Range). In a few lines: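 FRET-based replicon assay in HCV 1b-377-neo cells, including a comparison line carrying the NS5A Y2065H mutation that confers resistance to a reference compound.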
On to `O=C(C(c1ccccc1)N1CC[C@H](F)C1)N1CCC[C@H]1c1ncc(-c2ccc(-c3ccc(-c4cnc([C@@H]5CCCN5C(=O)C(c5ccccc5)N5CC[C@H](F)C5)[nH]4)cc3)cc2)[nH]1` (stereo partly drawn) [Example 19, 5,5′-(4,4′-biphenyldiyl)bis(2-((2S)-1-(((3S)-3-fluoro-1-pyrrolidinyl)(phenyl)acetyl)-2-pyrrolidinyl)-1H-imidazole)], for which the EC50 lay within 0.001 to 0.999 nM.

Still in this experiment, the particulars now being: Hepatitis C virus, HCV 1b-377-neo replicon cells; HCV 1b genotype; read-out: EC50 range against HCV 1b (Table 2, Range).
As to `CCN(CC)CCC(NC(=O)OC)C(=O)N1CCC[C@H]1c1ncc(-c2ccc(-c3ccc(-c4cnc([C@@H]5CCCN5C(=O)[C@@H](NC(=O)OC)C(C)C)[nH]4)cc3)cc2)[nH]1` (stereo partly drawn) [Example M67a, methyl ((1S)-1-(((2S)-2-(5-(4′-(2-((2S)-1-(4-(diethylamino)-2-((methoxycarbonyl)amino)butanoyl)-2-pyrrolidinyl)-1H-imidazol-5-yl)-4-biphenylyl)-1H-imidazol-2-yl)-1-pyrrolidinyl)carbonyl)-2-methylpropyl)carbamate], the EC50 is 100 to 999 nM.
The same measure, in the same setting: for `COC(=O)N[C@@H](C(=O)N1CCC[C@H]1c1ncc(-c2ccc(-c3ccc(-c4cnc([C@@H]5CCCN5C(=O)Cc5ccccc5CN(C)C)[nH]4)cc3)cc2)[nH]1)c1ccccc1` [Example 84-87, methyl ((1R)-2-((2S)-2-(5-(4′-(2-((2S)-1-((2-((dimethylamino)methyl)phenyl)acetyl)-2-pyrrolidinyl)-1H-imidazol-5-yl)-4-biphenylyl)-1H-imidazol-2-yl)-1-pyrrolidinyl)-2-oxo-1-phenylethyl)carbamate] the value was 0.001 to 0.999 nM.
The same measure, in the same setting: under `C=CCCOC(=O)N[C@H](C(=O)N1CCC[C@H]1c1ncc(-c2ccc(-c3ccc(-c4cnc([C@@H]5CCCN5C(=O)[C@@H](NC(=O)OCCC=C)C(C)C)[nH]4)cc3)cc2)[nH]1)C(C)C` [LS16, 3-buten-1-yl ((1S)-1-(((2S)-2-(5-(4′-(2-((2S)-1-((2S)-2-(((3-buten-1-yloxy)carbonyl)amino)-3-methylbutanoyl)-2-pyrrolidinyl)-1H-imidazol-5-yl)-4-biphenylyl)-1H-imidazol-2-yl)-1-pyrrolidinyl)carbonyl)-2-methylpropyl)carbamate] stands 1 to 99 nM.
Same read-out and setting: under `COC(=O)N[C@@H](C(=O)N1CCC[C@H]1c1ncc(-c2ccc(-c3ccc(-c4cnc([C@@H]5CCCN5C(=O)[C@@H](c5ccccc5)N(C)C)[nH]4)cc3C)cc2)[nH]1)c1ccccc1` [Example 126, methyl ((1R)-2-((2S)-2-(5-(4′-(2-((2S)-1-((2R)-2-(dimethylamino)-2-phenylacetyl)-2-pyrrolidinyl)-1H-imidazol-5-yl)-2′-methyl-4-biphenylyl)-1H-imidazol-2-yl)-1-pyrrolidinyl)-2-oxo-1-phenylethyl)carbamate] stands 0.001 to 0.999 nM.
As for `COC(=O)N[C@@H](C(=O)N1CCC[C@H]1c1ncc(-c2ccc(-c3ccc(-c4cnc([C@@H]5CCCN5C(=O)C5CCN(C)CC5)[nH]4)cc3)cc2)[nH]1)c1ccccc1` [Example 44, methyl ((1R)-2-((2S)-2-(5-(4′-(2-((2S)-1-((1-methyl-4-piperidinyl)carbonyl)-2-pyrrolidinyl)-1H-imidazol-5-yl)-4-biphenylyl)-1H-imidazol-2-yl)-1-pyrrolidinyl)-2-oxo-1-phenylethyl)carbamate], the EC50 was in the range of 0.001 to 0.999 nM.
Same read-out and setting: under `CN(C)[C@@H](C(=O)N1CCC[C@H]1c1ncc(-c2ccc(-c3ccc(-c4cnc([C@@H]5CCCN5C(=O)c5cscn5)[nH]4)cc3)cc2)[nH]1)c1ccccc1` [Example 94-42, (1R)-N,N-dimethyl-2-oxo-1-phenyl-2-((2S)-2-(5-(4′-(2-((2S)-1-(1,3-thiazol-4-ylcarbonyl)-2-pyrrolidinyl)-1H-imidazol-5-yl)-4-biphenylyl)-1H-imidazol-2-yl)-1-pyrrolidinyl)ethanamine] stands 0.001 to 0.999 nM; under `CN(C)CC(=O)N1CCC[C@H]1c1ncc(-c2ccc(-c3ccc(-c4cnc([C@@H]5CCCN5C(=O)CN(C)C)[nH]4)cc3)cc2)[nH]1` [Example 14, 2,2′-(4,4′-biphenyldiylbis(1H-imidazole-5,2-diyl(2S)-2,1-pyrrolidinediyl))bis(N,N-dimethyl-2-oxoethanamine)], 100 to 999 nM; under `COC(=O)N[C@@H](C)C(=O)N1CC2(CC2)C[C@H]1c1nc(-c2ccc(-c3ccc(-c4c[nH]c([C@@H]5CC6(CC6)CN5C(=O)[C@H](C)NC(=O)OC)n4)cc3)cc2)c[nH]1` [Example M147, methyl ((1S)-2-((6S)-6-(4-(4′-(2-((6S)-5-(N-(methoxycarbonyl)-L-alanyl)-5-azaspiro[2.4]hept-6-yl)-1H-imidazol-4-yl)-4-biphenylyl)-1H-imidazol-2-yl)-5-azaspiro[2.4]hept-5-yl)-1-methyl-2-oxoethyl)carbamate], 0.001 to 0.999 nM.
On the same count and under the same terms, for `COC(=O)N[C@@H](C)C(=O)N1CCC[C@H]1c1ncc(-c2ccc(-c3ccc(-c4nc([C@@H]5CCCN5C(=O)[C@H](C)NC(=O)OC)[nH]c4C)cc3)cc2)[nH]1` [Example E5d, methyl ((1S)-2-((2S)-2-(4-(4′-(2-((2S)-1-(N-(methoxycarbonyl)-L-alanyl)-2-pyrrolidinyl)-4-methyl-1H-imidazol-5-yl)-4-biphenylyl)-1H-imidazol-2-yl)-1-pyrrolidinyl)-1-methyl-2-oxoethyl)carbamate] the value was 0.001 to 0.999 nM; for `CN1CCC(C(=O)N[C@@H](C(=O)N2CCC[C@H]2c2ncc(-c3ccc(-c4ccc(-c5cnc([C@@H]6CCCN6C(=O)[C@@H]6CCCO6)[nH]5)cc4)cc3)[nH]2)c2ccccc2)CC1` [Example 114, 1-methyl-N-((1R)-2-oxo-1-phenyl-2-((2S)-2-(5-(4′-(2-((2S)-1-((2S)-tetrahydro-2-furanylcarbonyl)-2-pyrrolidinyl)-1H-imidazol-5-yl)-4-biphenylyl)-1H-imidazol-2-yl)-1-pyrrolidinyl)ethyl)-4-piperidinecarboxamide], 0.001 to 0.999 nM; for `O=C([C@@H](c1ccccc1)N1CCOCC1)N1CCC[C@H]1c1ncc(-c2ccc(-c3ccc(-c4cnc([C@@H]5CCCN5C(=O)[C@@H](c5ccccc5)N5CCOCC5)[nH]4)cc3)cc2)[nH]1` [Example 18, 4,4′-(4,4′-biphenyldiylbis(1H-imidazole-5,2-diyl(2S)-2,1-pyrrolidinediyl((1R)-2-oxo-1-phenyl-2,1-ethanediyl)))dimorpholine], 0.001 to 0.999 nM.
Same read-out and setting: for `CCN(CC)[C@@H](C(=O)N1CCC[C@H]1c1ncc(-c2ccc(-c3ccc(-c4cnc([C@@H]5CCCN5C(=O)[C@H]5CC[C@@H](N(CC)CC)CC5)[nH]4)cc3)cc2)[nH]1)c1ccccc1` [cj-73, cis-4-(((2S)-2-(5-(4′-(2-((2S)-1-((2R)-2-(diethylamino)-2-phenylacetyl)-2-pyrrolidinyl)-1H-imidazol-5-yl)-4-biphenylyl)-1H-imidazol-2-yl)-1-pyrrolidinyl)carbonyl)-N,N-diethylcyclohexanamine] the value was 0.001 to 0.999 nM; for `CN(C)[C@@H](C(=O)N1CCC[C@H]1c1ncc(-c2ccc(-c3ccc(-c4cnc([C@@H]5CCCN5C(=O)[C@@H](c5ccccc5)N5CCCCC5)[nH]4)cc3)cc2)[nH]1)c1ccccc1` [Example 28-1, (1R)—N,N-dimethyl-2-oxo-1-phenyl-2-((2S)-2-(5-(4′-(2-((2S)-1-((2R)-2-phenyl-2-(1-piperidinyl)acetyl)-2-pyrrolidinyl)-1H-imidazol-5-yl)-4-biphenylyl)-1H-imidazol-2-yl)-1-pyrrolidinyl)ethanamine], 0.001 to 0.999 nM.

The values above are taken from patent US8574563B2 (Bristol-Myers Squibb Company, priority 2006, dated 2013).
